Molecules are shown by their SMILES. Some results are limits rather than exact numbers.

Data set [1] is described as follows: Relative solubility by turbidity in aqueous buffers (pH 1.5, 4.5, 6.8, 7.4). Type of data set: physicochemical. Conditions: for turbidity threshold (L, M, H) 1.4: pH 1.5 (SGF); for turbidity threshold (L, M, H) 4.5: pH 4.5 (SIF); for turbidity threshold (L, M, H) 6.8: pH 6.8 (SIF); for turbidity threshold (L, M, H) 7.4: pH 7.4 (HEPES). Summed up:
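Twofold DMSO dilutions of a 25 mM stock were spiked into SGF (0.5M NaCl, pH 1.5), SIF (0.05M NaH2PO4, pH 4.5 and 6.8) or HEPES buffer (10 mM HEPES, 150 mM NaCl, pH 7.4). Absorbance was read at 490, 535 and 650 nm. The endpoint is the concentration crossing O.D. 0.01, averaged across wavelengths.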

For a further data set, the system named is MV-4-11 cells. Nature of the data set: MV-4-11 (leukemia) cell proliferation assay (ATPlite). Type of data set: cell-based. Conditions: Homo sapiens, MV4-11, read-out: Inhibition of Cell Proliferation IC50, MV-4-11. How it is done: Compounds are assessed in a variety of cell based assays. For example BaF3 cells engineered with any of BCR-FMS, BCR-KIT, BCR-FLT3, BCR-NTRK1, BCR-NTRK2, and BCR-NTRK3, are used in cell proliferation assays to assess inhibitory activity of Fms, Kit, Flt-3, TrkA, TrkB, and TrkC, respectively. An MV-4-11 (leukemia) cell proliferation assay is used to assess inhibitory activity in Flt-3, and SKNSH (human neuroblastoma) cell proliferation assay is used to assess efficacy of Fms/Trk inhibitors. Additional cells may be assayed similarly to assess the efficacy of Fms/Trk inhibitors, such as MiaPaCa (human pancreatic cancer) and Capan-1 (human pancreatic carcinoma) cells. Reagent and assay conditions are as follows: • BaF3 cells: • Maintained in RPMI containing 10% FBS, 1% PenStrep, 1% NEAA, and 1% L-Glutamine, supplemented with 1 mg/mL G418 and 5% WEHI-CM (or recombinant murine IL-3). • Confluent cells are split 1:50 to 1:100 every 3-4 days. • MV-4-11 cells: • Maintained in Iscove's Modified Dulbecco's Medium containing 10% FBS. • Confluent cells are split 1:4 every 3-4 days. • SKNSH cells: RPMI containing 10% FBS. On day 1, cells are counted, then centrifuged in a conical tube for 5 minutes at 1000 rpm. The supernatant is removed and cells are re-suspended as follows: • BaF3: resuspend in growth media +1 mg/mL G418 (without WEHFIL-3) to 2×10^5 cells/mL. • MV-4-11: resuspend in growth media to 5×10^5 cells/mL. • SKNSH: resuspend in growth media to 2×10^4 cells/mL. The cells are plated (50 μL, 150 μL for SKNSH cells) in each well of a 96-well dish (Corning 3610) and incubated at 37° C. in 5% CO2 overnight, cells plated to a final concentration of cells as follows: • BaF3: 10,000 cells per well. • MV-4-11: 25,000 cells per well. • SKNSH: 3,000 cells per well. On day 2, compound at a maximum concentration of 5 mM is serially diluted 1:3 for a total of 8 point titration with DMSO as a control. A 1 μL aliquot of each dilution point is added to 249 μL growth media and 50 μL is added to a well containing cells, providing 10 μM compound for the maximum concentration point. The cells are incubated for 3 days at 37° C. in 5% CO2. For SKNSH cells, a 0.75 μL aliquot of appropriate dilution in DMSO is added to 150 μL of cells. On day 5, ATPlite 1 step Luminescence Assay System (Perkin Elmer #6016739) is brought to room temperature along with the cell cultures. ATPlite is added to each well as follows: • BaF3: 25 μL per well. • MV-4-11: 40 μL per well. • SKNSH: 20 μL per well. The cells are incubated at room temperature for 10 minutes, then luminescence is read on Safire reader. The measured luminescence correlates directly with cell number, such that the reading as a function of compound concentration is used to determine the IC50 value.
It is understood that the results of these assays may vary as assay conditions are varied. Inhibition levels determined under the conditions described herein represent a relative activity for the compounds tested under the specific conditions employed. The cell based assays are likely to show variability due to the complexity of the system and the sensitivity thereof to any changes in the assay conditions. […] Results for compounds that are tested and show substantially no inhibition below the highest tested concentration are represented as “-” in the tables below. In some instances, the compounds were not tested in all of the assays, or assay results were not valid, as indicated by NA in the tables below.

For `FC1(F)CCC(Nc2ncc(Cc3c[nH]c4ncc(Cl)cc34)cn2)CC1` [Compound P-3004], in data set [1], the “turbidity threshold (L, M, H) 1.4” value is “H (high solubility if the threshold concentration is >250 μm)”; the “turbidity threshold (L, M, H) 4.5” value was “L (low solubility if the threshold concentration is <31.3 μM)”; the “turbidity threshold (L, M, H) 6.8” value is reported as “L (low solubility if the threshold concentration is <31.3 μM)”; the “turbidity threshold (L, M, H) 7.4” value was “L (low solubility if the threshold concentration is <31.3 μM)”. Also, the IC50 in the data set with MV-4-11 cells was less than 10000 nM.
Consider `Cc1cnc2[nH]cc(Cc3cnc(Nc4ccc(C(F)(F)F)nc4)nc3)c2c1` [Compound P-3018, [5-(5-Methyl-1H-pyrrolo[2,3-b]pyridin-3-ylmethyl)-pyrimidin-2-yl]-(6-trifluoromethyl-pyridin-3-yl)-amine], for which, in data set [1], the “turbidity threshold (L, M, H) 1.4” value was “H (high solubility if the threshold concentration is >250 μm)”; the “turbidity threshold (L, M, H) 4.5” value is listed as “M (moderate solubility if the threshold concentration is 31.3 μM to 250 μM)”; the “turbidity threshold (L, M, H) 6.8” value is on record as “M (moderate solubility if the threshold concentration is 31.3 μM to 250 μM)”; the “turbidity threshold (L, M, H) 7.4” value is listed as “M (moderate solubility if the threshold concentration is 31.3 μM to 250 μM)”. Moreover, the IC50 in the data set on MV-4-11 cells was less than 10 nM.
As for `COc1ccc(Nc2ccc(Cc3c[nH]c4ncc(C)cc34)c(F)n2)cn1` [Compound P-3019, [6-fluoro-5-(5-methyl-1H-pyrrolo[2,3-b]pyridin-3-ylmethyl)-pyridin-2-yl]-(6-methoxy-pyridin-3-yl)-amine], in data set [1], the “turbidity threshold (L, M, H) 1.4” value is “H (high solubility if the threshold concentration is >250 μm)”; the “turbidity threshold (L, M, H) 4.5” value is recorded as “L (low solubility if the threshold concentration is <31.3 μM)”; the “turbidity threshold (L, M, H) 6.8” value is given as “L (low solubility if the threshold concentration is <31.3 μM)”; the “turbidity threshold (L, M, H) 7.4” value is “L (low solubility if the threshold concentration is <31.3 μM)”. Also, the IC50 in the data set with MV-4-11 cells is less than 1000 nM.
As to `COc1ccc(Nc2ncc(Cc3c[nH]c4ncc(C)cc34)cn2)cn1` [Compound P-3020, (6-Methoxy-pyridin-3-yl)-[5-(5-methyl-1H-pyrrolo[2,3-b]pyridin-3-ylmethyl)-pyrimidin-2-yl]-amine], the IC50 with MV-4-11 cells was less than 100 nM.
Turning to `COc1cc(Nc2ncc(Cc3c[nH]c4ncc(C)cc34)cn2)ccc1F` [Compound P-3022, (4-Fluoro-3-methoxy-phenyl)-[5-(5-methyl-1H-pyrrolo[2,3-b]pyridin-3-ylmethyl)-pyrimidin-2-yl]-amine], the IC50 with MV-4-11 cells was less than 1000 nM.
Same read-out and setting: next, `COc1ccc(Nc2ncc(Cc3c[nH]c4ncc(C)cc34)cn2)cc1F` [Compound P-3023, (3-Fluoro-4-methoxy-phenyl)-[5-(5-methyl-1H-pyrrolo[2,3-b]pyridin-3-ylmethyl)-pyrimidin-2-yl]-amine]: less than 100 nM.
On the same count and under the same terms, next, `CCOc1ccc(Nc2ncc(Cc3c[nH]c4ncc(C)cc34)cn2)cn1` [Compound P-3027, (6-Ethoxy-pyridin-3-yl)-[5-(5-methyl-1H-pyrrolo[2,3-b]pyridin-3-ylmethyl)-pyrimidin-2-yl]-amine]: less than 10 nM; `CCn1ccc(Nc2ncc(Cc3c[nH]c4ncc(C)cc34)cn2)n1` [Compound P-3035, (1-Ethyl-1H-pyrazol-3-yl)-[5-(5-methyl-1H-pyrrolo[2,3-b]pyridin-3-ylmethyl)-pyrimidin-2-yl]-amine]: less than 1000 nM; `CCn1cc(Nc2ncc(Cc3c[nH]c4ncc(C)cc34)cn2)cn1` [Compound P-3036, (1-Ethyl-1H-pyrazol-4-yl)-[5-(5-methyl-1H-pyrrolo[2,3-b]pyridin-3-ylmethyl)-pyrimidin-2-yl]-amine]: less than 100 nM.
As to `Cc1cnc2[nH]cc(Cc3cnc(Nc4cc(OC(C)C)n[nH]4)nc3)c2c1` [Compound P-3038, (5-Isopropoxy-2H-pyrazol-3-yl)-[5-(5-methyl-1H-pyrrolo[2,3-b]pyridin-3-ylmethyl)-pyrimidin-2-yl]-amine], in the data set on MV-4-11 cells, the IC50 was more than 1000 nM.
`CCOc1ccc(Nc2ccc(Cc3c[nH]c4ncc(C)cc34)c(F)n2)cn1` [Compound P-3039, (6-ethoxy-pyridin-3-yl)-[6-fluoro-5-(5-methyl-1H-pyrrolo[2,3-b]pyridin-3-ylmethyl)-pyridin-2-yl]-amine]: in data set [1], the “turbidity threshold (L, M, H) 1.4” value was “H (high solubility if the threshold concentration is >250 μm)”; the “turbidity threshold (L, M, H) 4.5” value was “M (moderate solubility if the threshold concentration is 31.3 μM to 250 μM)”; the “turbidity threshold (L, M, H) 6.8” value is given as “M (moderate solubility if the threshold concentration is 31.3 μM to 250 μM)”; the “turbidity threshold (L, M, H) 7.4” value is given as “M (moderate solubility if the threshold concentration is 31.3 μM to 250 μM)”. In addition, the IC50 with MV-4-11 cells is less than 1000 nM.
Take `COc1ccc(Nc2ccc(Cc3c[nH]c4ncnc(OC)c34)c(F)n2)cn1` [Compound P-4001, [6-Fluoro-5-(4-methoxy-7H-pyrrolo[2,3-d]pyrimidin-5-ylmethyl)-pyridin-2-yl]-(6-methoxy-pyridin-3-yl)-amine]: in data set [1], the “turbidity threshold (L, M, H) 1.4” value is on record as “M (moderate solubility if the threshold concentration is 31.3 μM to 250 μM)”; the “turbidity threshold (L, M, H) 4.5” value is given as “M (moderate solubility if the threshold concentration is 31.3 μM to 250 μM)”; the “turbidity threshold (L, M, H) 6.8” value is on record as “M (moderate solubility if the threshold concentration is 31.3 μM to 250 μM)”; the “turbidity threshold (L, M, H) 7.4” value is listed as “M (moderate solubility if the threshold concentration is 31.3 μM to 250 μM)”. Moreover, the IC50 in the data set with MV-4-11 cells was less than 1000 nM.
As to `COc1ncnc2[nH]cc(Cc3ccc(Nc4ccc(Cl)nc4)nc3F)c12` [Compound P-4003, (6-Chloro-pyridin-3-yl)-[6-fluoro-5-(4-methoxy-7H-pyrrolo[2,3-d]pyrimidin-5-ylmethyl)-pyridin-2-yl]-amine], in data set [1], the “turbidity threshold (L, M, H) 1.4” value is listed as “M (moderate solubility if the threshold concentration is 31.3 μM to 250 μM)”; the “turbidity threshold (L, M, H) 4.5” value was “M (moderate solubility if the threshold concentration is 31.3 μM to 250 μM)”; the “turbidity threshold (L, M, H) 6.8” value is “M (moderate solubility if the threshold concentration is 31.3 μM to 250 μM)”; the “turbidity threshold (L, M, H) 7.4” value was “M (moderate solubility if the threshold concentration is 31.3 μM to 250 μM)”. The IC50 with MV-4-11 cells is less than 1000 nM.
As for `Fc1nc(Nc2ccc(C3CC3)nc2)ccc1Cc1c[nH]c2ncnc(NCC(F)(F)F)c12` [Compound P-4130, 5-[[6-[(6-cyclopropyl-3-pyridyl)amino]-2-fluoro-3-pyridyl]methyl]-N-(2,2,2-trifluoroethyl)-7H-pyrrolo[2,3-d]pyrimidin-4-amine], in data set [1], the “turbidity threshold (L, M, H) 1.4” value is “H (high solubility if the threshold concentration is >250 μm)”; the “turbidity threshold (L, M, H) 4.5” value is on record as “M (moderate solubility if the threshold concentration is 31.3 μM to 250 μM)”; the “turbidity threshold (L, M, H) 6.8” value is “M (moderate solubility if the threshold concentration is 31.3 μM to 250 μM)”; the “turbidity threshold (L, M, H) 7.4” value is reported as “M (moderate solubility if the threshold concentration is 31.3 μM to 250 μM)”.

For the origin of these results see patent US8901118B2, “Compounds and methods for kinase modulation, and indications therefor” (Plexxikon Inc., priority 2010, dated 2014).
